System: 610 metabolites from 63 biochemical pathways
Assay: Targeted broad-spectrum plasma metabolomic analysis (LC-MS/MS), paired pre-infusion vs post-infusion (2-days and 6-weeks)
Format: in vivo, human
Conditions: for Linear Ratio / VIP Score / Z Abs / Z Score: plasma
Experimental: Targeted, broad-spectrum, plasma metabolomic analysis of 610 metabolites from 63 biochemical pathways was performed by high performance liquid chromatography and tandem mass spectrometry (LC-MS/MS) on the samples collected from patients in Example 1. Venous blood was collected between the hours of 8 am and 5 pm, at least 3 hours after the last meal, into lithium-heparin vacutainer tubes (BD #367884). Plasma was separated by centrifugation at 900 g×10 minutes at room temperature within one hour of collection. The resulting fresh lithium-heparin plasma was transferred to labeled 1.2 ml or 2.0 ml externally threaded cryotubes with a minimum headspace air gap for storage at −80° C. for analysis. Samples were analyzed on an AB SCIEX QTRAP 5500 triple quadrupole mass spectrometer equipped with a Turbo V electrospray ionization (ESI) source, Shimadzu LC-20A UHPLC system, and a PAL CTC autosampler. Typically, 90 μl of plasma was thawed on ice and transferred to a 1.7 ml Eppendorf tube. Five (5.0) μl of a cocktail containing 25-35 commercial stable isotope internal standards, and 5.0 μl of 57 stable isotope internal standards that were custom-synthesized in E. coli NCM3722, Caenorhabditis elegans N2, and Komagataella phaffii (ATCC 76273; formerly known as Pichia pastoris) by metabolic labeling with 13C-glucose and 13C-bicarbonate, were added, mixed, and incubated for 10 min at 20° C. to permit small molecules and vitamins in the internal standards to associate with plasma binding proteins. Macromolecules (protein, DNA, RNA, glycans, etc.) were precipitated by extraction with 4 volumes (400 μl) of cold (−20° C.), acetonitrile:methanol (50:50) (LCMS grade, Cat #LC015-2.5 and GC230-4, Burdick & Jackson, Honeywell), vortexed vigorously, and incubated on crushed ice for 10 min, then removed by centrifugation at 16,000 g×10 min at 4° C. The supernatants containing the extracted metabolites and internal standards in the resulting 40:40:20 solvent mix of acetonitrile:methanol:water were transferred to labeled cryotubes and stored at −80° C. for LCMS/MS analysis.
LC-MS/MS analysis was performed by scheduled multiple reaction monitoring (sMRM) under Analyst v1.6.2 software control in both negative and positive mode with rapid polarity switching (50 ms). Nitrogen was used for curtain gas (set to 30), collision gas (set to high), ion source gas 1 and 2 (set to 35). The source temperature was 500° C. Spray voltage was set to −4500 V in negative mode and 5500 V in positive mode. The values for Q1 and Q3 mass-to-charge ratios (m/z), declustering potential (DP), entrance potential (EP), collision energy (CE), and collision cell exit potential (CXP) were determined and optimized for each MRM for each metabolite. Ten microliters of extract was injected by PAL CTC autosampler via a 10 μl stainless steel loop into a 250 mm×2.0 mm, 4 μm polymer based NH2 HPLC column (Asahipak NH2P-40 2E, Showa Denko America, Inc., NY) held at 25° C. for chromatographic separation. The mobile phase was solvent A: 95% water with 20 mM (NH4)2CO3 (Sigma, Fluka Cat #74415-250G-F), 5% acetonitrile, and 38 mM NH4OH (Sigma, Fluka Cat #17837-100ML), final pH 9.75; solvent B: 100% acetonitrile. Separation was achieved using the following gradient: 0-3.5 min: 95% B, 3.6-8 min: 85% B, 8.1-13 min: 75% B, 13.5-35 min: 0% B, 36-46 min: 95% B, 46.1 min: end. The flow rate was 200 μl/min. Pump pressures ranged from 920-2600 psi over the course of the gradient. All the samples were kept at 4° C. during analysis. The chromatographic peaks were identified using MultiQuant (v3.0, Sciex), confirmed by manual inspection, and the peak areas integrated. […]

[1] = 1-Carbon, Folate, Formate, Glycine, Serine Metabolism, 6-weeks
[2] = 1-Pyrroline-5-carboxylic acid, 6-weeks
[3] = 2-Hydroxyisocaproic acid, 6-weeks
[4] = 2-Hydroxyisovaleric acid, 6-weeks
[5] = 3-Hydroxy-cis-5-tetradecenoylcarnitine, 6-weeks
[6] = 4-Hydroxyphenyllactic acid, 6-weeks
[7] = Amino Acid Metabolism (not otherwise covered), 6-weeks
[8] = Amino-Sugar, Galactose, & Non-Glucose Metabolism, 6-weeks
[9] = Amino-Sugar, Galactose, & Non-Glucose, 2-days
[10] = Bioamines and Neurotransmitter Metabolism, 2-days

Cc1ccc(C(=O)Nc2ccc(S(=O)(=O)O)c3cc(S(=O)(=O)O)cc(S(=O)(=O)O)c23)cc1NC(=O)c1cccc(NC(=O)Nc2cccc(C(=O)Nc3cc(C(=O)Nc4ccc(S(=O)(=O)O)c5cc(S(=O)(=O)O)cc(S(=O)(=O)O)c45)ccc3C)c2)c1 [Suramin, suramin]
Decreased [1]: 0 | Fold Enrichment (Obs/Exp) [1]: 3.6 | Fraction of Impact (VIP Score) Explained (% of 94.6) [1]: 4% | Impact (Sum VIP Score) [1]: 4.0 | Increased [1]: 2 | Observed Hits in the Top 48 Metabolites [1]: 2 | Linear Ratio (1-Methyladenine, 6-weeks): 2.287 | VIP Score (1-Methyladenine, 6-weeks): 2.459 | Z Abs (1-Methyladenine, 6-weeks): 2.259 | Z Score (1-Methyladenine, 6-weeks): 2.259 | Linear Ratio [2]: 1.299 | VIP Score [2]: 2.358 | Z Abs [2]: 1.922 | Z Score [2]: 1.922 | Linear Ratio [3]: 1.306 | VIP Score [3]: 1.622 | Z Abs [3]: 0.997 | Z Score [3]: 0.997 | Linear Ratio [4]: 1.234 | VIP Score [4]: 1.988 | Z Abs [4]: 1.146 | Z Score [4]: 1.146 | Linear Ratio (2-Keto-L-gluconate, 6-weeks): 1.239 | VIP Score (2-Keto-L-gluconate, 6-weeks): 2.686 | Z Abs (2-Keto-L-gluconate, 6-weeks): 2.365 | Z Score (2-Keto-L-gluconate, 6-weeks): 2.365 | biochemical pathways changed by suramin (2-days after the infusion): 28 | Linear Ratio [5]: 0.734 | VIP Score [5]: 1.612 | Z Abs [5]: 1.056 | Z Score [5]: −1.056 | Linear Ratio [6]: 1.294 | VIP Score [6]: 1.945 | Z Abs [6]: 1.172 | Z Score [6]: 1.172 | pathways changed at 2-days that remained changed (6-week time point): 79% | metabolites significantly changed by suramin (total) (6-weeks): 48 | Linear Ratio (Alanine, 6-weeks): 1.322 | VIP Score (Alanine, 6-weeks): 2.456 | Z Abs (Alanine, 6-weeks): 1.687 | Z Score (Alanine, 6-weeks): 1.687 | Linear Ratio (Allantoin, 6-weeks): 1.798 | VIP Score (Allantoin, 6-weeks): 1.882 | Z Abs (Allantoin, 6-weeks): 1.068 | Z Score (Allantoin, 6-weeks): 1.068 | Decreased [7]: 0 | Fold Enrichment (Obs/Exp) [7]: 4.5 | Fraction of Impact (VIP Score) Explained (% of 94.6) [7]: 5% | Impact (Sum VIP Score) [7]: 4.3 | Increased [7]: 2 | Observed Hits in the Top 48 Metabolites [7]: 2 | Decreased (Amino Acid Metabolism, 2-days): 0 | Fold Enrichment (Obs/Exp) (Amino Acid Metabolism, 2-days): 1.8 | Fraction of Impact (VIP Score) Explained (% of 119.7) (Amino Acid Metabolism, 2-days): 1% | Impact (Sum VIP Score) (Amino Acid Metabolism, 2-days): 1.8 | Increased (Amino Acid Metabolism, 2-days): 1 | Observed Hits in the Top 61 Metabolites (Amino Acid Metabolism, 2-days): 1 | Decreased [8]: 0 | Fold Enrichment (Obs/Exp) [8]: 1.8 | Fraction of Impact (VIP Score) Explained (% of 94.6) [8]: 2% | Impact (Sum VIP Score) [8]: 1.9 | Increased [8]: 1 | Observed Hits in the Top 48 Metabolites [8]: 1 | Decreased [9]: 0 | Fold Enrichment (Obs/Exp) [9]: 1.4 | Fraction of Impact (VIP Score) Explained (% of 119.7) [9]: 1% | Impact (Sum VIP Score) [9]: 1.6 | Increased [9]: 1 | Observed Hits in the Top 61 Metabolites [9]: 1 | Linear Ratio (Azelaic acid, 6-weeks): 1.120 | VIP Score (Azelaic acid, 6-weeks): 2.151 | Z Abs (Azelaic acid, 6-weeks): 2.558 | Z Score (Azelaic acid, 6-weeks): 2.558 | Decreased (Bile Acid Metabolism, 6-weeks): 0 | Fold Enrichment (Obs/Exp) (Bile Acid Metabolism, 6-weeks): 4.5 | Fraction of Impact (VIP Score) Explained (% of 94.6) (Bile Acid Metabolism, 6-weeks): 6% | Impact (Sum VIP Score) (Bile Acid Metabolism, 6-weeks): 5.7 | Increased (Bile Acid Metabolism, 6-weeks): 3 | Observed Hits in the Top 48 Metabolites (Bile Acid Metabolism, 6-weeks): 3 | Decreased (Bile Salt Metabolism, 2-days): 0 | Fold Enrichment (Obs/Exp) (Bile Salt Metabolism, 2-days): 4.7 | Fraction of Impact (VIP Score) Explained (% of 119.7) (Bile Salt Metabolism, 2-days): 10% | Impact (Sum VIP Score) (Bile Salt Metabolism, 2-days): 11.9 | Increased (Bile Salt Metabolism, 2-days): 4 | Observed Hits in the Top 61 Metabolites (Bile Salt Metabolism, 2-days): 4 | Decreased [10]: 2 | Fold Enrichment (Obs/Exp) [10]: 1.6 | Fraction of Impact (VIP Score) Explained (% of 119.7) [10]: 3% | Impact (Sum VIP Score) [10]: 3.3 | Increased [10]: 0 | Observed Hits in the Top 61 Metabolites [10]: 2 | Decreased (Branch Chain Amino Acid Metabolism, 2-days): 0

Reference: US20190358181A1, “METHODS FOR AUTISM SPECTRUM DISORDER PHARMACOTHERAPY” (priority 2017, published 2019)
